This is an account of results in patent publication US12215354B2, “Differentiation of human embryonic stem cells into single hormonal insulin positive cells” (Janssen Biotech, Inc., priority 2011, dated 2025).

The test relates to human embryonic stem cell line H1. Briefly: Immune staining for insulin, glucagon and somatostatin hormones at end of stage 5 (Example 13). As to conditions: percentage of the entire hormone count at S5 day 3. It is filed as cell-based. On the procedure:
Cells of the human embryonic stem cell line H1 at various passages (passage 40 to passage 52) were seeded as single cells at a density of 100,000 cells/cm^2 on MATRIGEL™ (1:30 dilution) coated dishes in mTesr™1 media and 10 μM of Y27632. Forty eight hours post seeding, cultures were differentiated into pancreatic endocrine lineage as follows: • a. Stage 1 (Definitive Endoderm (DE)−3 days): Prior to start of DE, the cultures were washed and incubated with incomplete PBS (no Mg or Ca) for 30 seconds followed by addition of the stage 1 media. Human embryonic stem cells cultured as single cells on MATRIGEL™-coated dishes were treated with MCDB-131 medium supplemented with 0.1% fatty acid-free BSA, 0.0012 g/ml sodium bicarbonate, 1× GLUTAMAX™, 5 mM D-Glucose, 100 ng/ml GDF8, 1 μM MCX compound (GSK3B inhibitor) for one day. Cells were then treated with MCDB-131 medium supplemented with 0.1% fatty acid-free BSA, sodium bicarbonate, GLUTAMAX™, extra 5 mM glucose, 100 ng/ml GDF8, and 100 nM MCX compound for day two followed by an additional day in MCDB-131 medium supplemented with 0.1% fatty acid-free BSA, 0.0012 g/ml sodium bicarbonate, 1× GLUTAMAX™, 5 mM Glucose, and 100 ng/ml GDF8. • b. Stage 2 (Primitive gut tube−2 days): Cells were treated with MCDB-131 medium supplemented with 0.1% fatty acid-free BSA, 0.0012 g/ml sodium bicarbonate, 1× GLUTAMAX™, 5 mM D-Glucose, 0.25 mM ascorbic acid, and 25 ng/ml FGF7 and for two days, then • MCDB131supplemented with 1:200 dilution of ITS-X, 2.5 mM Glucose, 1× GLUTAMAX™, 0.0015 g/ml sodium bicarbonate, 2% fatty acid-free BSA, 10 ng/ml Activin A, 25 ng/ml FGF7, 0.25 mM ascorbic acid, 0.25 μM SANT-1, 1 μM RA, 200 nM TPB, 100 nM LDN-193189 for day 1, followed by treatment with tMCDB131supplemented with 1:200 dilution of ITS-X, 2.5 mM Glucose, 1× GLUTAMAX™, 0.0015 g/ml sodium bicarbonate, 2% fatty acid-free BSA, 10 ng/ml Activin A, 25 ng/ml FGF7, 0.25 mM ascorbic acid, 0.25 μMSANT-1, 1 μM RA, 200 nM TPB, 10 nM LDN-193189 for an additional day. • d. […]

Structures are written as SMILES.

With `O=C1O[C@H]([C@@H](O)CO)C(O)=C1O` [ascorbic acid], where the note is “treatment at S5”, the “% Polyhormonal” value was 44% and the “% glucagon + plus % somatostatin+” value was determined as 44%. The “% single hormonal Insulin+” value (treatment at S5 (0.1 mM ascorbic acid, 50 nM RA, 0.25 μM SANT-1, 1 μM Alk5 inh)) is 12%.
